These results are taken from patent US12479847B2 (DANA-FARBER CANCER INSTITUTE, INC., priority 2019, dated 2025).

Assay [1] addresses human LRRK2 kinase (Homo sapiens, UniProt Q5S007). The following applies: LRRK2, ADP-Glo, ATP 10 μM, 60 minutes at 25° C.
Assay [2] concerns the target T1, panel of 468 kinases (Homo sapiens, UniProt P54753).
T1 construct: purchased KINOMEscan (ScanMAX) service
T1 sequence (P54753 34-998): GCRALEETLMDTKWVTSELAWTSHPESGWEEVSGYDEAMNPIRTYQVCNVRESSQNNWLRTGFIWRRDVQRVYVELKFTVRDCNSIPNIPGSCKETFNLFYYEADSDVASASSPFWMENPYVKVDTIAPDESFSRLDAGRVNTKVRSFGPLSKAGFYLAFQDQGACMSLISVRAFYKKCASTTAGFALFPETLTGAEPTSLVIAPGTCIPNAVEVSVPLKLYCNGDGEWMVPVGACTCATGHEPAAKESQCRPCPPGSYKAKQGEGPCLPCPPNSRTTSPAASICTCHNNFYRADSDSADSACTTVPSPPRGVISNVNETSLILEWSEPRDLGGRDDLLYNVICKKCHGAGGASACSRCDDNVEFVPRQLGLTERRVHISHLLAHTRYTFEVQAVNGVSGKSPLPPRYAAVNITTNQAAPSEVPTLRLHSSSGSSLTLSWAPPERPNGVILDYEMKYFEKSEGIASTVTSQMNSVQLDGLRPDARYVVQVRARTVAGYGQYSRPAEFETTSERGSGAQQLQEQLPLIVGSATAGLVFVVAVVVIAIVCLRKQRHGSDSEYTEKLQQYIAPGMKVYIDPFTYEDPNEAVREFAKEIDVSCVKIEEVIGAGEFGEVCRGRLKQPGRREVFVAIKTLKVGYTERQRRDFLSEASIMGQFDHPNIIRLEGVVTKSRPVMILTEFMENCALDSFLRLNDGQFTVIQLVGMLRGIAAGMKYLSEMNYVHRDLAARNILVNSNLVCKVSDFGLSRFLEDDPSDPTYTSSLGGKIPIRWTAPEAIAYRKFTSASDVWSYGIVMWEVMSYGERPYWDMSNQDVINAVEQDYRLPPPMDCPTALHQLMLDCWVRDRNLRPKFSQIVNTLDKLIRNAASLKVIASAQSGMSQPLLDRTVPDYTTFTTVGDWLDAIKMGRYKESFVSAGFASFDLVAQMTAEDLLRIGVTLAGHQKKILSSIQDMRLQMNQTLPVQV
The experiment in a line: KINOMEscan (ScanMAX) kinase profiling. The format is binding. The following applies: EPHB3; 1 μM; read-out: % control.

Assay [3] addresses T2, wild-type LRKK2 (Mus musculus, UniProt Q5S006).
T2 construct: endogenous in cells; host or cells: NIH-3T3
The experiment in a line: LRRK2 immunoblot, phosphorylation of Ser935, NIH-3T3 cell lysates. The format is cell-based. The following applies: FIG. 1. Here is the method: Cell lysates were extracted from the NIH-3T3 cell pellet using lysis buffer (40 mM Tris-HCl pH 8.0, 120 mM NaCl, 0.10% Nonidet™-P40) supplemented with protease inhibitors. Proteins in whole-cell lysates were separated by SDS-PAGE and transferred to an Amersham™ nitrocellulose membrane (Amersham, UK). Nitrocellulose membranes were blocked with 5% skim milk in phosphate-buffered saline containing Tween 20 and incubated with primary antibodies overnight at 4° C. The blots were then incubated with the appropriate horseradish peroxidase (HRP)-conjugated secondary antibodies and proteins were visualized by enhanced chemiluminescence, according to the manufacturer's protocol (Amersham™ Western blotting). Secondary antibodies, anti-rabbit IgG-HRP were purchased from Cell Signaling technology. Immunoblot film were scanned on a LAS500 scanner, and images were managed with Adobe Photoshop

Chain of human LRRK2 kinase (Q5S007 whole entry): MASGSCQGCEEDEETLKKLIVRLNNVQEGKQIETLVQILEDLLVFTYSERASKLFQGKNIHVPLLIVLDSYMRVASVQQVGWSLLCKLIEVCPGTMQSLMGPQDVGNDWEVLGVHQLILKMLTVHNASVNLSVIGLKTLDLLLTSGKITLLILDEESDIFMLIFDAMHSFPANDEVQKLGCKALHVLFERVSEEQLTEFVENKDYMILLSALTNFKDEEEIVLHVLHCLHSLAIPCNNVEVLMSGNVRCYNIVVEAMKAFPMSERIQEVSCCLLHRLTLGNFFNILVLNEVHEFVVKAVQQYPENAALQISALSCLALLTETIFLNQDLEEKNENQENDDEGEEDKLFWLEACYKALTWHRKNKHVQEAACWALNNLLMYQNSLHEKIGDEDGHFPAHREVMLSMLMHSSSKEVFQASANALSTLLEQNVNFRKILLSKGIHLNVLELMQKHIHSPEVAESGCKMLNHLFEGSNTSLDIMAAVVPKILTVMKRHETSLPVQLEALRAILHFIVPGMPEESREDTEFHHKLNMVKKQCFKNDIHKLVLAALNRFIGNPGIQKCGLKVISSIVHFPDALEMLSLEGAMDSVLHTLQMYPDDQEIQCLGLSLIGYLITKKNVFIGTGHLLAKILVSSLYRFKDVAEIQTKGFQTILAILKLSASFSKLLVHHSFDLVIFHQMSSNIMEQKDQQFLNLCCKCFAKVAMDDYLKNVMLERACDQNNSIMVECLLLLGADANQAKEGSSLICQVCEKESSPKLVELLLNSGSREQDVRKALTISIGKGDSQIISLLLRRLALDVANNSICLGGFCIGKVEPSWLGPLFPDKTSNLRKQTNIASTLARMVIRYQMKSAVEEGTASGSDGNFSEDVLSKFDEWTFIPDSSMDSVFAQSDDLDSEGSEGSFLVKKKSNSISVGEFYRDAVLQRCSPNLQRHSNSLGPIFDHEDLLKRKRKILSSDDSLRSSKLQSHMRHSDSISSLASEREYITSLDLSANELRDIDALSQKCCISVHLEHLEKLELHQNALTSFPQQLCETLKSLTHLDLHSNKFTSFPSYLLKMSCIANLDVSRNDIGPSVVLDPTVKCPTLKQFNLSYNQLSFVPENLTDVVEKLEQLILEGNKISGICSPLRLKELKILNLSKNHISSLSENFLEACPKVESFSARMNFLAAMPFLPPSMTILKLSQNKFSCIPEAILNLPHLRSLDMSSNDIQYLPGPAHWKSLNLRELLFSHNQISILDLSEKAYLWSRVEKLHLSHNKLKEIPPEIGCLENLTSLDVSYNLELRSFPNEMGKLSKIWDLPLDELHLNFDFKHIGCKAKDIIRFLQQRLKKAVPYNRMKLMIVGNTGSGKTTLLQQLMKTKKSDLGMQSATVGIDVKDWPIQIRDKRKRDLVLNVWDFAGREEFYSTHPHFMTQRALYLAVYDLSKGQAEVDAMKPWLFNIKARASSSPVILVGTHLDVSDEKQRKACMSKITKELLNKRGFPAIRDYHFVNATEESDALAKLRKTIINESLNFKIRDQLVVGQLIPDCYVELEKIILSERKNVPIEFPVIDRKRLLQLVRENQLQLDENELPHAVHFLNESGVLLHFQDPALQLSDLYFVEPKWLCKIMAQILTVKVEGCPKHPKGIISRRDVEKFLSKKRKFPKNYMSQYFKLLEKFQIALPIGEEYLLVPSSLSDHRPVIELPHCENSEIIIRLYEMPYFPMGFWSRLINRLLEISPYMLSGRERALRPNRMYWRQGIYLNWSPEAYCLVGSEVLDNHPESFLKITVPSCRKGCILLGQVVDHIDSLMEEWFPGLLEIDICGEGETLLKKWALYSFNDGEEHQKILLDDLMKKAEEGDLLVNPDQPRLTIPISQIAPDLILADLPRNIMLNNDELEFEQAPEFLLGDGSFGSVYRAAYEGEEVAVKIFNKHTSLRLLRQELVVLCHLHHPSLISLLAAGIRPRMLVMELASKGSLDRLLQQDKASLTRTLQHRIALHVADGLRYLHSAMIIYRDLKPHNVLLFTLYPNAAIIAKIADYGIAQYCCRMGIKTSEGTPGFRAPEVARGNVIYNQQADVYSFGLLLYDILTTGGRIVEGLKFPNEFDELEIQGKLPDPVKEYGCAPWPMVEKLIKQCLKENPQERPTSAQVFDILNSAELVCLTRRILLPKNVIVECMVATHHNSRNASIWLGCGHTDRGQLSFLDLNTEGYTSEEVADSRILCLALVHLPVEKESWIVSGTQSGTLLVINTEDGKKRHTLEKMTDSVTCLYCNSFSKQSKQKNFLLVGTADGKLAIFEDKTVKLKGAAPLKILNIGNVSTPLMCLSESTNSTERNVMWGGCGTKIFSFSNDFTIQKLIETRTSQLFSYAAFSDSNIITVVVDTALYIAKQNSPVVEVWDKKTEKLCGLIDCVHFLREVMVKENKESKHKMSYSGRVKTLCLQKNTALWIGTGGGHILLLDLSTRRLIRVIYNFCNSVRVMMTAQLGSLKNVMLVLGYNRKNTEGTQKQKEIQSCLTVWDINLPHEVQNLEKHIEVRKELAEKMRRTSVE
T2 sequence (Q5S006 whole entry): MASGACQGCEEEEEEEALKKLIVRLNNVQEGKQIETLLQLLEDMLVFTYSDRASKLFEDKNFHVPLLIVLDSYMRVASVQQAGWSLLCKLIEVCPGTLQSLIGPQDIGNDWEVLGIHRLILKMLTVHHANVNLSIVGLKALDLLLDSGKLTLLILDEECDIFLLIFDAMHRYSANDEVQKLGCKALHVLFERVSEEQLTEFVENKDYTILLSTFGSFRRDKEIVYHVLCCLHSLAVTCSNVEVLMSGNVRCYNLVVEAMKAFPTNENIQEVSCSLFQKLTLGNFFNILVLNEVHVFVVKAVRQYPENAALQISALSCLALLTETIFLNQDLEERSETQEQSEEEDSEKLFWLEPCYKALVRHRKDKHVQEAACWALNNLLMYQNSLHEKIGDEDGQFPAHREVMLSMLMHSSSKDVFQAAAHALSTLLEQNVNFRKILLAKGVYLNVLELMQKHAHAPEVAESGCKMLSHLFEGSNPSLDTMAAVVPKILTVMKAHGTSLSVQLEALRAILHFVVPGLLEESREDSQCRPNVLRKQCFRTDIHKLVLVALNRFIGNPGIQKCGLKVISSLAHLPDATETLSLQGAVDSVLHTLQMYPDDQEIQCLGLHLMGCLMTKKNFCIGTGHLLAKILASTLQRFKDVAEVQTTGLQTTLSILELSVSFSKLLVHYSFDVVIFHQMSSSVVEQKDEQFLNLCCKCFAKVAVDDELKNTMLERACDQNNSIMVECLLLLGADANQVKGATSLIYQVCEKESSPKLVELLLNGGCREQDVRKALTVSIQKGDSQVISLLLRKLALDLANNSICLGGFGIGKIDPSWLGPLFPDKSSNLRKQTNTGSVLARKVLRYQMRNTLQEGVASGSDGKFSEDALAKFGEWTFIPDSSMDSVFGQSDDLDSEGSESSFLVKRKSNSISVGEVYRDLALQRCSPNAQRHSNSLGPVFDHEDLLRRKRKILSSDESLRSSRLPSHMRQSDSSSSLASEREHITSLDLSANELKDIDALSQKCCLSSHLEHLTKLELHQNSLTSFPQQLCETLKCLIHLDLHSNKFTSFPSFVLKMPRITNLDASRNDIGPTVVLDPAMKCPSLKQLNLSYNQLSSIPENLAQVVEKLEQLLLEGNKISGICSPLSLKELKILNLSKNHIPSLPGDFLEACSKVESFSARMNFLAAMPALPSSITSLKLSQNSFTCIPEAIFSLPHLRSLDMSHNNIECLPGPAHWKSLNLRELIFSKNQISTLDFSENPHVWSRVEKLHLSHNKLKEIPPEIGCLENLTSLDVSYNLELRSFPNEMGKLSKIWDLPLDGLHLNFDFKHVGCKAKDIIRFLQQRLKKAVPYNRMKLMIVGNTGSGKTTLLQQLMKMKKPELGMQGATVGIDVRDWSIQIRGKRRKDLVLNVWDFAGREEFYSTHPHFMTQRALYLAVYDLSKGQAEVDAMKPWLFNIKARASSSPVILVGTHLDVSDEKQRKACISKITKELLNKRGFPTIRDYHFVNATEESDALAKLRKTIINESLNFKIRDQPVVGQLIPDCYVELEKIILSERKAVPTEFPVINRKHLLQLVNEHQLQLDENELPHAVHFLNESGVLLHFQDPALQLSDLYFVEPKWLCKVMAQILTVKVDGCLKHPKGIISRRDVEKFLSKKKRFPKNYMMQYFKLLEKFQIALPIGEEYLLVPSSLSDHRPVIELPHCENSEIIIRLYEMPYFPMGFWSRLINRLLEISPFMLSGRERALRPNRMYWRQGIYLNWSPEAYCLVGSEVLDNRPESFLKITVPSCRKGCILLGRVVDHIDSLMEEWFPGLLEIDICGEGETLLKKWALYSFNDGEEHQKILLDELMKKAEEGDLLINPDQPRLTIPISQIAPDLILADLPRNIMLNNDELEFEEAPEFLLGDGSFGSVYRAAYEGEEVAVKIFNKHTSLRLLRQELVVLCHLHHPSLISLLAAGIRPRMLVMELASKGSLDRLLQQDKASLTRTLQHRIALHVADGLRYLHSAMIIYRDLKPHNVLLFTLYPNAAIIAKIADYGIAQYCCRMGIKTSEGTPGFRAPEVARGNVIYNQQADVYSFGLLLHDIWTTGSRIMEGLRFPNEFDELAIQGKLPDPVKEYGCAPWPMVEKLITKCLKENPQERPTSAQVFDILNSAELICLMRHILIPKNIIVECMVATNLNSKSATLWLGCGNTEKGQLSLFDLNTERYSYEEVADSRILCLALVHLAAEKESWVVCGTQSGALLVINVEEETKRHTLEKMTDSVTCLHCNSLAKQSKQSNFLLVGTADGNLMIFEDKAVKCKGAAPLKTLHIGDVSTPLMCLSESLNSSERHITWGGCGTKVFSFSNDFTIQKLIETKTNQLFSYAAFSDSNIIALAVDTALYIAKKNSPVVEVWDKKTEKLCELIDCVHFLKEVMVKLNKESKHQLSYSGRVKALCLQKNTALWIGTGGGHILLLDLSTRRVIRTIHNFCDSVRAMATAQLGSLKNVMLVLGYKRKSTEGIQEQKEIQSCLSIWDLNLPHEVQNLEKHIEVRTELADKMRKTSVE

In turn, `CNc1nc(Nc2ccc(C(=O)N3CCC(N4CCOCC4)CC3)c3c2OCO3)nc2[nH]cc(Cl)c12` [Compound 75, (7-((5-chloro-4-(methylamino)-7H-pyrrolo[2,3-d]pyrimidin-2-yl)amino)benzo[d][1,3]dioxol-4-yl)(4-morpholinopiperidin-1-yl)methanone] displayed an IC50 in assay [1] of less than 10 nM. In addition, in assay [2], the remaining binding at 1 µM came out at 100%.

For `CNc1nc(Nc2ccc(P3(=O)CCN(C4CCOCC4)CC3)cc2OC)nc2[nH]cc(Cl)c12` [Compound 77, 4-(4-((5-chloro-4-(methylamino)-7H-pyrrolo[2,3-d]pyrimidin-2-yl)amino)-3-methoxyphenyl)-1-(tetrahydro-2H-pyran-4-yl)-1,4-azaphosphinane 4-oxide], in assay [1], the concentration for half-maximal inhibition (IC50) is less than 10 nM. In addition, the “inhibition of the phosphorylation of Ser935 in wild-type LRKK2” value in assay [3] is reported as “inhibited the phosphorylation of Ser935 in wild-type LRKK2 with potency similar to known LRRK2 inhibitor LRRK2-IN-1”. For the same molecule, in assay [2], the remaining binding at 1 µM is 100%.

Consider `CNc1nc(Nc2ccc(S(=O)(=O)N3CCC(N4CCOCC4)CC3)cc2OC)nc2[nH]cc(Cl)c12` [Compound 12, 5-chloro-N2-(2-methoxy-4-((4-morpholinopiperidin-1-yl)sulfonyl)phenyl)-N4-methyl-7H-pyrrolo[2,3-d]pyrimidine-2,4-diamine], for which the IC50 in assay [1] was less than 10 nM. In addition, the remaining binding at 1 µM in assay [2] amounted to 100%.
